Test results from patent US6908915B1, “Tricyclic compounds and their uses as antiarrhythmic antifibrillatory and defibrillatory agents” (Technion Research & Development Foundation Ltd., priority 2000, dated 2005).

System: artificially induced SVF
Experiment: Transformation of electrically induced SVF to TVF in anesthetized cats (antiarrhythmic defibrillating activity)
Format: in vivo
Settings: intravenous, VF type examined before and 2 to 3 min after drug; for Relative activity in dosage of 1 mg/kg: monohydrochloride
Method: 10,11-dihydro-5-[(3-N-alkyl)1-oxopropyl] 5-H-dibenzo[b,f]azepin monohydrochloride, 10,11-dihydro-5-[N-? isopropylamino-2propanol)] 5-H-dibenzo [b,f]azepin monohydrochloride and 11-Oxo-10,11-dihydro-5-[(N-alkyl)1-oxopropyl]-5-H-dibenzo [b,e] [1,4] diazepin hydrochloride were synthesized as is described hereinabove and tested for their effectiveness in transforming SVF to TVF, as described herein. […] The experimental method was as follows.
Hydrochloride salts of the compounds were dissolved in saline. Activity of each compound was tested in cats of both sexes. Cats were anesthetized with 15-25 mg/kg intravenous sodium, pentobarbital. The tested compounds were injected intravenously (1-3 mg/kg). The heart of each experimental subject was exposed through midline thoracotomy, and a room air respirator was applied through a tracheal cannula. Lead II electrocardiogram and intra-arterial blood pressure was recorded on a Grass Polygraph (Grass Instrument Co., Quincy, Mass., USA).
Fibrillating stimuli (a train of rectangular pulses of 2 to 15 V, 100 pulses/sec and duration of 0.1 to 1.0 msec, for a period of 1 sec) were delivered through two silver needle electrodes attached to the pericardium on the left ventricle. Fibrillating stimuli were one and a half to twice the strength of the fibrillating threshold.
VF was induced before and after drug administration, according to a previously described procedure. The type of VF was examined before and 2 to 3 min after drug treatment. Each cat served as its own control. In some experiments, a β-adrenergic blocker (propranolol, 0.1-0.6 mg/kg) was administered after drug administration, in order to evaluate the neutralizing effect of the blocker on the compound-induced catecholamine levels. Table l below presents the results.

Compound	Relative activity in dosage of 1 mg/kg [%]	Relative activity in dosage of 2 mg/kg [%]
CC(C)NCC(O)CN1c2ccccc2CCc2ccccc21.Cl (stereo not drawn) [Compound 25bi]	100	100
CC(C)NCC(O)CN1c2ccccc2CCc2ccccc21.Cl (stereo not drawn) [Compound 25bis]	100	100
CC(C)NCC(O)CN1c2ccccc2CCc2ccccc21.Cl (stereo not drawn) [Compound 25bir]	50	100
